Measurements reported in the supplement of paper PMC8612539.

Tested on: Histophilus somni
Experiment: minimum inhibitory concentration (MIC)
Description: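 Broth microdilution MIC (Sensititre BOPO7F bovine plate, CLSI methods) of 19 antimicrobials against field isolates of P. multocida, M. haemolytica, H. somni (deep nasopharyngeal swabs) and E. coli, Enterococcus spp. (rectal swabs) from weaned dairy heifers. Incubation 16-24 h at 35 C. MIC is the lowest concentration preventing visible growth. Values with <= or > lie at the tested range limits. Trimethoprim-sulfamethoxazole is given as the trimethoprim component of a 1:19 mixture.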

[1] = isolate (source animal id): 100
[2] = isolate (source animal id): 105
[3] = isolate (source animal id): 107
[4] = isolate (source animal id): 108
[5] = isolate (source animal id): 109
[6] = isolate (source animal id): 110
[7] = isolate (source animal id): 117
[8] = isolate (source animal id): 121
[9] = isolate (source animal id): 123
[10] = isolate (source animal id): 124
[11] = isolate (source animal id): 127
[12] = isolate (source animal id): 128
[13] = isolate (source animal id): 130
[14] = isolate (source animal id): 132
[15] = isolate (source animal id): 135
[16] = isolate (source animal id): 140
[17] = isolate (source animal id): 141
[18] = isolate (source animal id): 142
[19] = isolate (source animal id): 144
[20] = isolate (source animal id): 146
[21] = isolate (source animal id): 147
[22] = isolate (source animal id): 151
[23] = isolate (source animal id): 153
[24] = isolate (source animal id): 154
[25] = isolate (source animal id): 156
[26] = isolate (source animal id): 157
[27] = isolate (source animal id): 176
[28] = isolate (source animal id): 183
[29] = isolate (source animal id): 186
[30] = isolate (source animal id): 196
[31] = isolate (source animal id): 198
[32] = isolate (source animal id): 200
[33] = isolate (source animal id): 206
[34] = isolate (source animal id): 208
[35] = isolate (source animal id): 210
[36] = isolate (source animal id): 212
[37] = isolate (source animal id): 215
[38] = isolate (source animal id): 216
[39] = isolate (source animal id): 218
[40] = isolate (source animal id): 219
[41] = isolate (source animal id): 224
[42] = isolate (source animal id): 228
[43] = isolate (source animal id): 230
[44] = isolate (source animal id): 233
[45] = isolate (source animal id): 238
[46] = isolate (source animal id): 239
[47] = isolate (source animal id): 241
[48] = isolate (source animal id): 242
[49] = isolate (source animal id): 243
[50] = isolate (source animal id): 245
[51] = isolate (source animal id): 246
[52] = isolate (source animal id): 247
[53] = isolate (source animal id): 248
[54] = isolate (source animal id): 250
[55] = isolate (source animal id): 251
[56] = isolate (source animal id): 252
[57] = isolate (source animal id): 254
[58] = isolate (source animal id): 258
[59] = isolate (source animal id): 259
[60] = isolate (source animal id): 262
[61] = isolate (source animal id): 264
[62] = isolate (source animal id): 265
[63] = isolate (source animal id): 266
[64] = isolate (source animal id): 267
[65] = isolate (source animal id): 269
[66] = isolate (source animal id): 271
[67] = isolate (source animal id): 272
[68] = isolate (source animal id): 274
[69] = isolate (source animal id): 276
[70] = isolate (source animal id): 278
[71] = isolate (source animal id): 280
[72] = isolate (source animal id): 281
[73] = isolate (source animal id): 283
[74] = isolate (source animal id): 288
[75] = isolate (source animal id): 291
[76] = isolate (source animal id): 292
[77] = isolate (source animal id): 296
[78] = isolate (source animal id): 306
[79] = isolate (source animal id): 336
[80] = isolate (source animal id): 337
[81] = isolate (source animal id): 341

Measured: minimum inhibitory concentration

COc1cc(Cc2cnc(N)nc2N)cc(OC)c1OC.Cc1cc(NS(=O)(=O)c2ccc(N)cc2)no1 [trimethoprim-sulfamethoxazole]
> 2 µg/mL: isolate (source animal id): 4 | isolate (source animal id): 7 | isolate (source animal id): 14 | isolate (source animal id): 17 | isolate (source animal id): 20 | isolate (source animal id): 45 | isolate (source animal id): 53 | isolate (source animal id): 88 | [7] | [8] | [12] | [14] | [15] | [16] | [22] | [44] | [45] | [46] | [50] | [62] | [67] | [71] | [75]
≤ 2 µg/mL: isolate (source animal id): 3 | isolate (source animal id): 15 | isolate (source animal id): 18 | isolate (source animal id): 23 | isolate (source animal id): 83 | isolate (source animal id): 92 | isolate (source animal id): 93 | isolate (source animal id): 99 | [1] | [2] | [3] | [4] | [5] | [6] | [9] | [10] | [11] | [13] | [17] | [18] | [19] | [20] | [21] | [23] | [24] | [25] | [26] | [27] | [28] | [29] | [30] | [31] | [32] | [33] | [34] | [35] | [36] | [37] | [38] | [39] | [40] | [41] | [42] | [43] | [47] | [48] | [49] | [51] | [52] | [53] | [54] | [55] | [56] | [57] | [58] | [59] | [60] | [61] | [63] | [64] | [65] | [66] | [68] | [69] | [70] | [72] | [73] | [74] | [76] | [77] | [78] | [79] | [80] | [81]

CS(=O)(=O)c1ccc([C@@H](O)[C@@H](CF)NC(=O)C(Cl)Cl)cc1 [Florfenicol]
≤ 0.25 µg/mL: isolate (source animal id): 3 | isolate (source animal id): 15 | isolate (source animal id): 18 | isolate (source animal id): 23 | isolate (source animal id): 93 | [9] | [10] | [11] | [17] | [19] | [23] | [26] | [27] | [28] | [29] | [30] | [31] | [32] | [33] | [34] | [35] | [36] | [37] | [38] | [39] | [40] | [41] | [42] | [43] | [45] | [47] | [48] | [49] | [51] | [52] | [53] | [54] | [55] | [56] | [57] | [58] | [59] | [61] | [62] | [63] | [64] | [65] | [66] | [67] | [69] | [70] | [71] | [72] | [73] | [74] | [76] | [77] | [78] | [79] | [80] | [81]
0.5 µg/mL: isolate (source animal id): 83 | isolate (source animal id): 88 | isolate (source animal id): 92 | isolate (source animal id): 99 | [1] | [2] | [3] | [5] | [6] | [7] | [8] | [12] | [14] | [15] | [16] | [20] | [22] | [75]
1 µg/mL: isolate (source animal id): 4 | isolate (source animal id): 7 | isolate (source animal id): 14 | isolate (source animal id): 17 | isolate (source animal id): 20 | isolate (source animal id): 45 | isolate (source animal id): 53 | [4] | [13] | [18] | [21] | [24] | [25] | [44] | [46] | [50] | [60] | [68]

CC1(C)S[C@@H]2[C@H](NC(=O)Cc3ccccc3)C(=O)N2[C@H]1C(=O)O [Penicillin]
0.5 µg/mL: [71]
0.25 µg/mL: isolate (source animal id): 15 | [50] | [57] | [73]
8 µg/mL: [62] | [67]
≤ 0.12 µg/mL: isolate (source animal id): 3 | isolate (source animal id): 4 | isolate (source animal id): 7 | isolate (source animal id): 14 | isolate (source animal id): 17 | isolate (source animal id): 18 | isolate (source animal id): 20 | isolate (source animal id): 23 | isolate (source animal id): 45 | isolate (source animal id): 53 | isolate (source animal id): 83 | isolate (source animal id): 88 | isolate (source animal id): 92 | isolate (source animal id): 93 | isolate (source animal id): 99 | [1] | [2] | [3] | [4] | [5] | [6] | [7] | [8] | [9] | [10] | [11] | [12] | [13] | [14] | [15] | [16] | [17] | [18] | [19] | [20] | [21] | [22] | [23] | [24] | [25] | [26] | [27] | [28] | [29] | [30] | [31] | [32] | [33] | [34] | [35] | [36] | [37] | [38] | [39] | [40] | [41] | [42] | [43] | [44] | [45] | [46] | [47] | [48] | [49] | [51] | [52] | [53] | [54] | [55] | [56] | [58] | [59] | [60] | [61] | [63] | [64] | [65] | [66] | [68] | [69] | [70] | [72] | [74] | [75] | [76] | [77] | [78] | [79] | [80] | [81]

NC[C@@H]1O[C@H](O[C@H]2[C@@H](O)[C@H](O[C@@H]3[C@@H](O)[C@H](N)C[C@H](N)[C@H]3O[C@H]3O[C@H](CN)[C@@H](O)[C@H](O)[C@H]3N)O[C@@H]2CO)[C@H](N)[C@@H](O)[C@@H]1O [Neomycin]
≤ 4 µg/mL: isolate (source animal id): 20 | [53] | [69]
32 µg/mL: isolate (source animal id): 3 | isolate (source animal id): 4 | isolate (source animal id): 15 | isolate (source animal id): 18 | isolate (source animal id): 23 | isolate (source animal id): 45 | isolate (source animal id): 53 | isolate (source animal id): 83 | isolate (source animal id): 88 | [2] | [9] | [10] | [11] | [22] | [25] | [27] | [28] | [36] | [42] | [43] | [46] | [47] | [48] | [49] | [51] | [52] | [54] | [55] | [56] | [57] | [60] | [68] | [75]
16 µg/mL: isolate (source animal id): 7 | isolate (source animal id): 14 | isolate (source animal id): 17 | [7] | [8] | [12] | [13] | [14] | [15] | [16] | [17] | [45]
> 32 µg/mL: isolate (source animal id): 92 | isolate (source animal id): 99 | [1] | [3] | [4] | [5] | [6] | [18] | [19] | [20] | [21] | [23] | [24] | [26] | [29] | [30] | [31] | [32] | [33] | [34] | [35] | [37] | [38] | [39] | [40] | [41] | [44] | [50] | [58] | [59] | [62] | [63] | [64] | [65] | [66] | [67] | [70] | [71] | [72] | [73] | [74] | [76] | [77] | [78] | [79] | [80] | [81]
8 µg/mL: isolate (source animal id): 93 | [61]

CCN1CCN(c2cc3c(cc2F)c(=O)c(C(=O)O)cn3C2CC2)CC1 [Enrofloxacin]
≤ 0.12 µg/mL: isolate (source animal id): 3 | isolate (source animal id): 4 | isolate (source animal id): 7 | isolate (source animal id): 14 | isolate (source animal id): 15 | isolate (source animal id): 17 | isolate (source animal id): 18 | isolate (source animal id): 20 | isolate (source animal id): 23 | isolate (source animal id): 45 | isolate (source animal id): 53 | isolate (source animal id): 83 | isolate (source animal id): 88 | isolate (source animal id): 92 | isolate (source animal id): 93 | isolate (source animal id): 99 | [1] | [2] | [3] | [4] | [5] | [6] | [7] | [8] | [9] | [10] | [11] | [12] | [13] | [14] | [15] | [16] | [17] | [18] | [19] | [20] | [21] | [22] | [23] | [24] | [25] | [26] | [27] | [28] | [29] | [30] | [31] | [32] | [33] | [34] | [35] | [36] | [37] | [38] | [39] | [40] | [41] | [42] | [43] | [44] | [45] | [46] | [47] | [48] | [49] | [50] | [51] | [52] | [53] | [54] | [55] | [56] | [57] | [58] | [59] | [60] | [61] | [62] | [63] | [64] | [65] | [66] | [67] | [68] | [69] | [70] | [71] | [72] | [73] | [74] | [75] | [76] | [77] | [78] | [79] | [80] | [81]
